This is an account of results in patent US12098145B2 (Libra Therapeutics, Inc., priority 2022, dated 2024).

The target of assay [1] is T1, TRPML1 (Homo sapiens, UniProt Q9GZU1).
T1 construct: expressed in transfected cells; host or cells: HEK T-REx cells stably expressing GCaMP6f and TRPML1
In words: Cellular TRPML1 assay (FLIPR, GCaMP6f calcium read-out). The format is cell-based. The conditions noted are these: HEKT-REx/GCaMP6f/TRPML1 cells, FLIPR TETRA, kinetic response over 300 seconds; read-out: TRPML1 FLIPR pEC50 (converted). The essentials:
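Read-out is GCaMP6f fluorescence over 300 s after compound addition in Ca2+-free Tyrode's buffer, final DMSO 0.5%, on FLIPR Tetra. Cells are HEK T-REx stably co-expressing the indicator and TRPML1, plated 24 h earlier in Optimem + 0.5% FBS and pre-incubated ~10 min at room temperature.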

Assay [2] deals with TFEB. The assay is described as follows: TFEB translocation assay (TFEB reporter in U2OS cells, imaging). The format is cell-based. The conditions noted are these: Homo sapiens; U2OS cell line with TFEB reporter, 2 hours incubation, nucleus to cytoplasm ratio, normalized to Torin-1; read-out: TFEB Translocation pEC50 (converted). The essentials: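 Activity expresses the mean nuclear-to-cytosolic reporter ratio scaled between DMSO (0%) and Torin-1 (100%) controls. Read-out came from high-content imaging of fixed, Hoechst-counterstained U2OS cells carrying mRFP-tagged TFEB after 2 h compound exposure at 37 °C in Opti-MEM with 0.015% Tween 80 and 0.5% DMSO.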

T1 sequence (Q9GZU1 whole entry): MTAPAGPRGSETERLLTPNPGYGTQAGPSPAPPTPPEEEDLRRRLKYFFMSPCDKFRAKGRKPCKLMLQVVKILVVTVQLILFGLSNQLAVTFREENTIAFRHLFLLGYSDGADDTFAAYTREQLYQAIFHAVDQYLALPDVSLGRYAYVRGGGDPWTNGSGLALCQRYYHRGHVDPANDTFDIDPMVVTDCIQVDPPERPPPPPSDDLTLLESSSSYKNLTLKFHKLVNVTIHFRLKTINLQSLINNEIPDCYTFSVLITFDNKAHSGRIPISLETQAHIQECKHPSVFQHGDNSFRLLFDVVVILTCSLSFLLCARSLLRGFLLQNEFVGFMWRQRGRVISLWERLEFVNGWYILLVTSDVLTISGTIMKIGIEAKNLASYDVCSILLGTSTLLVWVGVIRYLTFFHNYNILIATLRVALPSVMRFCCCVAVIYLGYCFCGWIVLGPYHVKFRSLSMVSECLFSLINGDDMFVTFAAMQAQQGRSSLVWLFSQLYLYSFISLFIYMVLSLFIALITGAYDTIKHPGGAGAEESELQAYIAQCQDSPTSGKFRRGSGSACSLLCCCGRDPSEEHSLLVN

As to `CCC1(CC)CN(c2nc(C(=O)Nc3cc(F)c(OC4CCC5CC54)c(F)c3)c(CC(F)(F)F)o2)C1` (centres unmarked) [Example 155, N-(4-(bicyclo[3.1.0]hexan-2-yloxy)-3,5-difluorophenyl)-2-(3,3-diethylazetidin-1-yl)-5-(2,2,2-trifluoroethyl)oxazole-4-carboxamide], the EC50 in assay [1] and in assay [2] was 10 to 1000 nM throughout.
For the molecule `O=C(Nc1ccc(O[C@@H]2C[C@@H]3C[C@@H]3C2)c(F)c1)c1nc(N2CC3CC3C2)oc1CC(F)(F)F` (stereo partly drawn) [Example 156, 2-(3-azabicyclo[3.1.0]hexan-3-yl)-N-(4-(cis-bicyclo[3.1.0]hexan-3-yloxy)-3-fluorophenyl)-5-(2,2,2-trifluoroethyl)oxazole-4-carboxamide], the EC50 in assay [1] and in assay [2] was 10 to 1000 nM in each case.
Regarding `O=C(Nc1cc(F)c(O[C@@H]2C[C@@H]3C[C@@H]3C2)c(F)c1)c1nc(N2CCC3OCCC32)oc1CC(F)(F)F` (stereo partly drawn) [Example 157, N-(4-(cis-bicyclo[3.1.0]hexan-3-yloxy)-3,5-difluorophenyl)-2-(hexahydro-4H-furo[3,2-b]pyrrol-4-yl)-5-(2,2,2-trifluoroethyl)oxazole-4-carboxamide], the EC50 in assay [1] and in assay [2] was 10 to 1000 nM each time.
Regarding `CCC1(OC)CN(c2nc(C(=O)Nc3ccc(O[C@@H]4C[C@@H]5C[C@@H]5C4)c(F)c3)c(CC(F)(F)F)o2)C1` [Example 159, N-(4-(cis-bicyclo[3.1.0]hexan-3-yloxy)-3-fluorophenyl)-2-(3-ethyl-3-methoxyazetidin-1-yl)-5-(2,2,2-trifluoroethyl)oxazole-4-carboxamide], the EC50 in assay [1] and in assay [2] was 10 to 1000 nM each time.
Regarding `O=C(Nc1ccc(O[C@@H]2C[C@@H]3C[C@@H]3C2)c(F)c1)c1nc(N2CC3CCC3C2)oc1CC(F)(F)F` (stereo partly drawn) [Example 161, N-(4-(cis-bicyclo[3.1.0]hexan-3-yloxy)-3-fluorophenyl)-2-(3-azabicyclo[3.2.0]heptan-3-yl)-5-(2,2,2-trifluoroethyl)oxazole-4-carboxamide], the EC50 in assay [1] and in assay [2] was 10 to 1000 nM each time.
Regarding `O=C(Nc1ccc(O[C@@H]2C[C@@H]3C[C@@H]3C2)c(F)c1)c1nc(N2CCC3CCCC32)oc1CC(F)(F)F` (stereo partly drawn) [Example 162, N-(4-(cis-bicyclo[3.1.0]hexan-3-yloxy)-3-fluorophenyl)-2-(hexahydrocyclopenta[b]pyrrol-1(2H)-yl)-5-(2,2,2-trifluoroethyl)oxazole-4-carboxamide], the EC50 in assay [1] and in assay [2] was 10 to 1000 nM throughout.
With `O=C(Nc1cc(F)c(O[C@@H]2C[C@@H]3C[C@@H]3C2)c(F)c1)c1nc(N2CCC3CCCCC32)oc1CC(F)(F)F` (stereo partly drawn) [Example 163, N-(4-(cis-bicyclo[3.1.0]hexan-3-yloxy)-3,5-difluorophenyl)-2-(octahydro-1H-indol-1-yl)-5-(2,2,2-trifluoroethyl)oxazole-4-carboxamide], the EC50 in assay [1] and in assay [2] was 10 to 1000 nM in each case.
For `COC1(C)CN(c2nc(C(=O)Nc3cc(C)c(O[C@@H]4C[C@@H]5C[C@@H]5C4)c(F)c3)c(CC(F)(F)F)o2)C1` [Example 164, N-(4-(cis-bicyclo[3.1.0]hexan-3-yloxy)-3-fluoro-5-methylphenyl)-2-(3-methoxy-3-methylazetidin-1-yl)-5-(2,2,2-trifluoroethyl)oxazole-4-carboxamide], the EC50 in assay [1] and in assay [2] was 10 to 1000 nM throughout.
With `CCC1(COC)CN(c2nc(C(=O)Nc3cc(F)c(O[C@@H]4C[C@@H]5C[C@@H]5C4)c(F)c3)c(CC(F)(F)F)o2)C1` [Example 165, N-(4-(cis-bicyclo[3.1.0]hexan-3-yloxy)-3,5-difluorophenyl)-2-(3-ethyl-3-(methoxymethyl)azetidin-1-yl)-5-(2,2,2-trifluoroethyl)oxazole-4-carboxamide], the EC50 in assay [1] and in assay [2] was 10 to 1000 nM each time.
For the molecule `O=C(Nc1cc(F)c(O[C@@H]2C[C@@H]3C[C@@H]3C2)c(F)c1)c1nc(N2CCC23CCC3)oc1CC(F)(F)F` [Example 170, N-(4-(cis-bicyclo[3.1.0]hexan-3-yloxy)-3,5-difluorophenyl)-2-(1-azaspiro[3.3]heptan-1-yl)-5-(2,2,2-trifluoroethyl)oxazole-4-carboxamide], the EC50 in assay [1] and in assay [2] was 10 to 1000 nM each time.
For the molecule `O=C(Nc1ccc(O[C@@H]2C[C@@H]3C[C@@H]3C2)c(F)c1)c1nc(N2CC3(CCOCC3)C2)oc1CC(F)(F)F` [Example 171, N-(4-(cis-bicyclo[3.1.0]hexan-3-yloxy)-3-fluorophenyl)-2-(7-oxa-2-azaspiro[3.5]nonan-2-yl)-5-(2,2,2-trifluoroethyl)oxazole-4-carboxamide], the EC50 in assay [1] and in assay [2] was 10 to 1000 nM each time.
On to `CC1(C)CCCN1c1nc(C(=O)Nc2cc(F)c(O[C@@H]3C[C@@H]4C[C@@H]4C3)c(F)c2)c(CC(F)(F)F)o1` [Example 172, N-(4-(cis-bicyclo[3.1.0]hexan-3-yloxy)-3,5-difluorophenyl)-2-(2,2-dimethylpyrrolidin-1-yl)-5-(2,2,2-trifluoroethyl)oxazole-4-carboxamide], for which the EC50 in assay [1] and in assay [2] was 10 to 1000 nM throughout.
In the case of `O=C(Nc1cc(F)c(O[C@@H]2C[C@@H]3C[C@@H]3C2)c(F)c1)c1nc(N2CC3(CCCO3)C2)oc1CC(F)(F)F` [Example 173, N-(4-(cis-bicyclo[3.1.0]hexan-3-yloxy)-3,5-difluorophenyl)-2-(5-oxa-2-azaspiro[3.4]octan-2-yl)-5-(2,2,2-trifluoroethyl)oxazole-4-carboxamide], the EC50 in assay [1] and in assay [2] was 10 to 1000 nM throughout.
Regarding `O=C(Nc1cc(F)c(O[C@@H]2C[C@@H]3C[C@@H]3C2)c(F)c1)c1nc(N2CCCCCC2)oc1CC(F)(F)F` [Example 174, 2-(azepan-1-yl)-N-(4-(cis-bicyclo[3.1.0]hexan-3-yloxy)-3,5-difluorophenyl)-5-(2,2,2-trifluoroethyl)oxazole-4-carboxamide], the EC50 in assay [1] and in assay [2] was 10 to 1000 nM each time.
On to `O=C(Nc1cc(F)c(OC2CC3C[C@@H]3C2)c(F)c1)c1nc(N2CC3CCC3C2)oc1CC(F)(F)F` (stereo partly drawn) [Example 177, N-(4-(cis-bicyclo[3.1.0]hexan-3-yloxy)-3,5-difluorophenyl)-2-(3-azabicyclo[3.2.0]heptan-3-yl)-5-(2,2,2-trifluoroethyl)oxazole-4-carboxamide], for which the EC50 in assay [1] and in assay [2] was 10 to 1000 nM each time.
On to `COC1(C)CN(c2nc(C(=O)Nc3cc(F)c(O[C@@H]4C[C@@H]5C[C@@H]5C4)c(F)c3)c(CC(F)(F)F)o2)C1` [Example 178, N-(4-(cis-bicyclo[3.1.0]hexan-3-yloxy)-3,5-difluorophenyl)-2-(3-methoxy-3-methylazetidin-1-yl)-5-(2,2,2-trifluoroethyl)oxazole-4-carboxamide], for which the EC50 in assay [1] and in assay [2] was 10 to 1000 nM each time.
Consider `O=C(Nc1cc(F)c(OC2CC3C[C@H]3C2)c(F)c1)c1nc(N2C[C@H]3CCO[C@H]3C2)oc1CC(F)(F)F` (stereo partly drawn) [Example 179, N-(4-(cis-bicyclo[3.1.0]hexan-3-yloxy)-3,5-difluorophenyl)-2-((3aR,6aR)-hexahydro-5H-furo[2,3-c]pyrrol-5-yl)-5-(2,2,2-trifluoroethyl)oxazole-4-carboxamide], for which the EC50 in assay [1] and in assay [2] was 10 to 1000 nM throughout.
Consider `O=C(Nc1cc(F)c(OC2CC3C[C@H]3C2)c(F)c1)c1nc(N2C[C@@H]3CCO[C@@H]3C2)oc1CC(F)(F)F` (stereo partly drawn) [Example 180, N-(4-(cis-bicyclo[3.1.0]hexan-3-yloxy)-3,5-difluorophenyl)-2-((3aS,6aS)-hexahydro-5H-furo[2,3-c]pyrrol-5-yl)-5-(2,2,2-trifluoroethyl)oxazole-4-carboxamide], for which the EC50 in assay [1] and in assay [2] was 10 to 1000 nM in each case.
`CCC1(CC)CN(c2nc(C(=O)Nc3cc(F)c(O[C@@H]4C[C@@H]5C[C@@H]5C4)c(F)c3)c(CC(F)(F)F)o2)C1` [Example 183, N-(4-(cis-bicyclo[3.1.0]hexan-3-yloxy)-3,5-difluorophenyl)-2-(3,3-diethylazetidin-1-yl)-5-(2,2,2-trifluoroethyl)oxazole-4-carboxamide]: the EC50 in assay [1] and in assay [2] was 10 to 1000 nM in each case.
With `O=C(Nc1cc(F)c(OC2CC3C[C@@H]3C2)c(F)c1)c1nc(N2CCC3CCCC32)oc1CC(F)(F)F` (stereo partly drawn) [Example 185, N-(4-(cis-bicyclo[3.1.0]hexan-3-yloxy)-3,5-difluorophenyl)-2-(hexahydrocyclopenta[b]pyrrol-1(2H)-yl)-5-(2,2,2-trifluoroethyl)oxazole-4-carboxamide], the EC50 in assay [1] and in assay [2] was 10 to 1000 nM throughout.
With `O=C(Nc1cc(F)c(OC2CC3C[C@@H]3C2)c(F)c1)c1nc(N2CC3COCC3C2)oc1CC(F)(F)F` (stereo partly drawn) [Example 186, N-(4-(cis-bicyclo[3.1.0]hexan-3-yloxy)-3,5-difluorophenyl)-2-(tetrahydro-1H-furo[3,4-c]pyrrol-5(3H)-yl)-5-(2,2,2-trifluoroethyl)oxazole-4-carboxamide], the EC50 in assay [1] and in assay [2] was 10 to 1000 nM in each case.
On to `Cc1cc(NC(=O)c2nc(N3CCCC3)oc2CC(F)(F)F)cc(F)c1NC1CC2CC(C2)C1` (centres unmarked) [Example 193, N-(4-(bicyclo[3.1.1]heptan-3-ylamino)-3-fluoro-5-methylphenyl)-2-(pyrrolidin-1-yl)-5-(2,2,2-trifluoroethyl)oxazole-4-carboxamide], for which the EC50 in assay [1] and in assay [2] was 10 to 1000 nM each time.
